From patent publication US11771725B2, “Lactobacillus having various functions, and use thereof” (University-Industry Cooperation Group of Kyung Hee …, priority 2015, dated 2023)

Experiments:
[1] = test system: RBL-2H3 cell line (rat mast cell line); assay: Inhibition of degranulation in IgE-sensitized RBL-2H3 cells; format: cell-based; conditions: RBL-2H3, lactic acid bacteria 1×10^4 CFU/ml
Procedure: The RBL-2H3 cell line (rat mast cell line, the Korean Cell Line Bank, Cat. No. 22256) was cultured with DMEM (Dulbeccos' modified Eagle's medium, Sigma, 22256) containing 10% FBS (fetal bovine serum) and L-glutamine in a humidified 5% CO2 incubator at 37° C. The cells contained in the culture medium were floated using trypsin-EDTA solution, and the floated cells were isolated, collected and used in the experiment. The collected RBL-2H3 cells were dispensed into a 24-well plate at a density of 5×10^5 cells/well and sensitized by incubation with 0.5 μg/ml of mouse monoclonal IgE for 12 hours. The sensitized cells were washed with 0.5 ml of siraganian buffer (119 mM NaCl, 5 mM KCl, 0.4 mM MgCl2, 25 mM PIPES, 40 mM NaOH, pH 7.2), and then incubated with 0.16 ml of siraganian buffer (supplemented with 5.6 mM glucose, 1 mM CaCl2), 0.1% BSA) at 37° C. for 10 minutes. Next, lactic acid bacteria as a test drug were added to the cell culture to a concentration of 1×10^4 CFU/ml, or 0.04 ml of DSCG (disodium cromoglycate) as a control drug was added to the cell culture, and after 20 minutes, the cells were activated with 0.02 ml of antigen (1 μg/ml DNP-BSA) at 37° C. for 10 minutes. […] Next, the reaction was stopped by addition of 0.2 ml of 0.1M Na2CO3/NaHCO3, and the absorbance at 405 nm was measured by an ELISA analyzer.

[2] = test system: itching behavior induced by compound 48/80; assay: Inhibition of itching induced by compound 48/80; format: in vivo; conditions: BALB/c mice, 1×10^9 CFU orally once a day for 3 days (control drugs 0.2 mg/mouse)
Procedure: At 1 hour after the last administration of the drug, the mice were allowed to stand in an observation cage (24 cm×22 cm×24 cm) for 10 minutes so as to be acclimated to the environment, and then the back portion of the head was shaved. […] Sigma, USA) by a 29-gauge needle. […] Scratching the injection area with the back foot was regarded as the itching behavior, and scratching other portions was not regarded.

[3] = test system: vascular permeability induced by compound 48/80; assay: Inhibition of vascular permeability induced by compound 48/80 (Evans blue); format: in vivo; conditions: BALB/c mice, 1×10^9 CFU orally once a day for 3 days (control drugs 0.2 mg/mouse)
Procedure: It is known that itching-induced areas have increased vascular permeability. […] According to the same method as the above-described experiment for measurement of itching inhibitory activity, the drug was administered to the same mice. Next, physiological saline was injected subcutaneously into the back portion of the head of the mice of the normal group, and an itching inducer (50 μg of compound 48/80; Sigma, USA) was injected subcutaneously into the back portion of the head of the mice of the other test group. Next, 0.2 ml of 1% Evans blue solution (Sigma, USA) was injected into the tail vein, and after 1 hour, the mice were euthanized. The skin of the subcutaneously injected area was dissected, and incubated in 1 ml of 1N KOH at 37° C. overnight. On the next day, the incubated skin tissue was mixed with 4 ml of 0.6N phosphoric acid-acetone (5:13) mixture and centrifuged at 3000 rpm for 15 minutes, and the supernatant was collected and measured for absorbance at 620 nm. Inhibition (%) of vascular permeability was calculated using the following equation: Inhibition(%)={1−[absorbance of area treated with drug and itching inducer−absorbance of area not treated with itching inducer]/[absorbance of area treated with itching inducer−absorbance of area not treated with itching inducer]}×100

Row | Compound | Inhibition (%) Degranulation ([1]; first experiment) | Degranulation inhibition (%) ([1]; second experiment) | Inhibition (%) Itching [2] | Inhibition (%) vascular permeability [3]
1 | O=C([O-])c1cc(=O)c2c(OCC(O)COc3cccc4oc(C(=O)[O-])cc(=O)c34)cccc2o1.[Na+].[Na+] [DSCG, disodium cromoglycate] | 62% | 62% | 25% | 37%
2 | CN1CCCC(n2nc(Cc3ccc(Cl)cc3)c3ccccc3c2=O)CC1 (stereo not drawn) [Azelastine] |  |  | 65% | 68%
